Measurements from patent US20110028504A1, “Formulation of radioprotective alpha beta unsaturated aryl sulfones” (ONCONOVA THERAPEUTICS, INC., priority 2005, published 2011).

Tests used:
Format in all cases: physicochemical
[1] = pH solubility testing in McIlvaine type buffer; details: thermodynamic from solid, read-out: Observed Solubility (C5)
Procedure: The solubility of ON.1210.Na salt is tested in McIlvaine type buffer with 0.1 M ionic strength. The buffers are prepared using the recipe mentioned in Table 17 The final pH is adjusted using 0.1N sodium hydroxide or 0.1N hydrochloric acid until the pH is within ±0.1 pH units of the target pH. The pKa of the drug calculated from pH-solubility study is depicted in Table 19. The solubility of the ON.1210.Na salt is tested in a McIlvaine type buffer with 0.1 M ionic strength. The buffers are prepared using the recipe mentioned in Table 16 using various volumes of 0.15 M citric acid monohydrate, and 0.2 M sodium phosphate dibasic, 12 hydrate. The final pH is adjusted using 0.1N sodium hydroxide or 0.1N hydrochloric acid until the pH is within ±0.1 pH units of the target pH. The samples for the pH solubility study are prepared by adding 10-20 mg of ON.1210.Na salt to a 4 mL vial. Then 1 mL of the appropriate pH buffer is added to the vial. The solution is mixed on a vortex genie for approximately 30 seconds. If the solution looks clear, additional drug is added. No additional drug is added to solutions which appear to be clear at a concentration of greater than 50 mg/mL. The study is done in duplicate. Once the solutions are prepared, the initial pH of the samples are measured. The solutions are then protected from light, and placed on a shaker. The solutions are agitated for 24 to 96 hours at ambient conditions. The vials are then removed from the orbital shaker, and the final pH of the solutions is measured for each sample. The solutions are then filtered, and analyzed by HPLC.

[2] = Determination of pKa from saturated solubility at different pH
Procedure: The pKa of the weakly acidic drug is determined from pH-solubility data using the equation provided below.
Where Cs=observed solubility and C0=intrinsic solubility of the compound,
Since the drug is weakly acidic, its intrinsic solubility is assumed to be the solubility at a very low pH (pH=4) where the contribution due to ionization is minimal.

[3] = Forced degradation studies (HPLC)
Procedure: In order to establish the specificity of this assay procedure several forced degradation studies were conducted as follows:
The ON.1210.Na sample is prepared in HPLC grade water at a concentration of 200 μg/mL. All the peaks detected in the chromatogram at time zero are noted with their corresponding retention time and absolute peak areas. The solution is crimped into a 5 mL glass vial and autoclaved. After autoclaving, the sample is filtered through a 0.1μ filter and 20 μL of the filtered sample is analyzed. The absolute peak area of the peak after autoclaving and appearance of any additional peaks due to possible degradation is shown in Table 9.
One ml of the 500 μg/mL standard solution is mixed with 1 mL of 0.1 N HCl. The sample is cloudy in appearance and filtered prior to HPLC analysis. All the peaks detected in the chromatogram at time zero are noted with their corresponding retention time and absolute peak areas. The solution is crimped into a 5 mL glass vial and autoclaved. After autoclaving, the sample is filtered through a 0.1μ filter and […] of the filtered sample is analyzed by HPLC. The absolute peak areas of the peak after autoclaving, and appearance of any other peaks due to possible degradation are noted.
One ml of the 500 μg/mL standard solution is mixed with 1 mL of 0.1 N NaOH. The sample is clear in appearance. All the peaks detected in the chromatogram at time zero are noted with their corresponding retention time and absolute peak area. The solution is crimped into a 5 mL glass vial and autoclaved. After autoclaving, the sample is filtered through a 0.1μ filter and 20 μL of the filtered sample is analyzed. The absolute peak area of the peaks after autoclaving and appearance of any other peaks due to possible degradation are noted.
A solid drug sample (ON1210), after autoclaving in a crimped vial, is also evaluated for any degradation using the developed HPLC method. The sample, after autoclaving, is used to make a standard solution of 400 μg/mL and injected onto HPLC.
In this study, 30% of the hydrogen peroxide is diluted to 3% (v/v) with water. One ml of the 500 μg/mL standard solution is mixed with 1 mL of 3% hydrogen peroxide; then incubated at 50° C. over a period of two hours. All the peaks detected in the chromatogram at different time points are noted with their corresponding retention time and absolute peak areas. The chromatograms are run for 30 minute periods.

## O=C([O-])c1ccc(/C=C/S(=O)(=O)Cc2ccc(Cl)cc2)cc1.[Na+] [ON.1210.Na, (E)-4-Carboxystyryl-4-chlorobenzylsulfone, Sodium Salt]
[1]; pH 4, aqueous buffer
  Solubility: 0.000154 mg/mL
[1]; pH 5, aqueous buffer
  Solubility: 0.0379 mg/mL
[1]; pH 6, aqueous buffer
  Solubility: 0.715 mg/mL
[1]; pH 7.4, aqueous buffer
  Solubility: 11.1 mg/mL
[1]; pH 8, aqueous buffer
  Solubility: 16.8 mg/mL
[1]; pH 9, aqueous buffer
  Solubility: 23.3 mg/mL
[2]; aqueous buffer, thermodynamic from solid, assumed to be the solubility at pH 4, read-out: intrinsic solubility
  Solubility: 0.000154 mg/mL
[2]; calculated from solubility at pH 5
  pKa: 2.61
[2]; calculated from solubility at pH 6
  pKa: 2.33
[2]; calculated from solubility at pH 7.4
  pKa: 2.54
[2]; calculated from solubility at pH 8
  pKa: 2.96
[2]; calculated from solubility at pH 9
  pKa: 3.82
[3]; 200 μg/mL in water
  stability of the aqueous solution on autoclaving: stable under autoclaving conditions
[3]; 0.05N NaOH, autoclaving
  degradation under alkaline condition: Significantly more degradation is present under alkaline condition
[3]; in presence of strong acid (0.05N HCl)
  degradation upon autoclaving: less than 10%
[3]; solid drug autoclaved in a crimped vial, then 400 μg/mL by HPLC
  stability of the solid on autoclaving: stable under the autoclaving conditions
